Assay results from US8110689B2, “Benzanilides with insecticidal activity” (Bayer Cropsciene AG, priority 2006, dated 2012).

tested on: not given; settings: not given

**Q.** For Cc1cc(Cc2cc(C(F)(F)F)cc(C(F)(F)F)c2)ccc1NC(=O)c1cccc(Cl)c1C(=O)N[C@@H](C)C[S+](C)[O-] (stereo partly shown), which melting point is on record?
**A.** The melting point was 162 to 165 °C.

**Q.** With CSC[C@H](C)NC(=O)c1c(Cl)cccc1C(=O)Nc1ccc(Cc2cc(C(F)(F)F)cc(C(F)(F)F)c2)nc1C as the compound, how does the melting point read?
**A.** Its melting point is 73 to 79 °C.

**Q.** With Cc1cc(Cc2cc(C(F)(F)F)cc(C(F)(F)F)c2)ccc1NC(=O)c1cccc(Cl)c1C(=O)N[C@@H](C)CS(C)(=O)=O as the compound, how does the melting point read?
**A.** Its melting point is 155 to 158 °C.

**Q.** With CSC[C@H](C)NC(=O)c1c(C)cccc1C(=O)Nc1ccc(Cc2cc(C(F)(F)F)cc(C(F)(F)F)c2)cc1C as the compound, how does the melting point read?
**A.** The melting point was 85 to 94 °C.

**Q.** For CSC[C@H](C)NC(=O)c1c(Cl)cccc1C(=O)Nc1ccc(Cc2cc(C(F)(F)F)cc(C(F)(F)F)c2)cc1C, which melting point is on record?
**A.** The melting point was 57 to 62 °C.

tested on: organophosphorous- and carbamate-resistant Myzus persicae; settings: 100 ppm; 7 days after application; 28° C. greenhouse

**Q.** With CSC[C@H](C)NC(=O)c1c(Cl)cccc1C(=O)Nc1ccc(Cc2cc(C(F)(F)F)cc(C(F)(F)F)c2)cc1C [Compound No. 19] as the compound, how does the insect mortality read?
**A.** Its insect mortality is 100%.

**Q.** With CSC[C@H](C)NC(=O)c1c(Cl)cccc1C(=O)Nc1ccc(Cc2cc(Br)cc(Br)c2)cc1C [compound 152] as the compound, how does the insect mortality read?
**A.** Its insect mortality is 100%.
